Test results as given in US6608085B1, “4-quinolinemethanol derivatives as purine receptor antagonists (II)” (Vernalis Research Limited, priority 1998, dated 2003).
pKi: −log10 of the molar value. Where a name gives a salt, the structure may show the parent alone.

System: cataleptic responses
Assay: not given
Details: in vivo; cited from earlier work

Structure (SMILES) | anticataleptic effects of a subthreshold dose of L-DOPA plus benserazide | catalepsy induced by haloperidol and reserpine
CCCn1c(=O)c2c(nc(/C=C/c3ccc(OC)c(OC)c3)n2C)n(CCC)c1=O [KF 17837, (E)-8-(3,4-dimethoxystyryl)-1,3-dipropyl-7-methylxanthine] | potentiated | reduced

Same assay, conditions: oral administration; cited from earlier work

Structure (SMILES) | cataleptic responses induced by intracerebroventricular CGS 21680
CCCn1c(=O)c2c(nc(/C=C/c3ccc(OC)c(OC)c3)n2C)n(CCC)c1=O [KF 17837, (E)-8-(3,4-dimethoxystyryl)-1,3-dipropyl-7-methylxanthine] | significantly ameliorated

Molecular target: human adenosine A2A receptors (Homo sapiens, UniProt P29274)
Sequence (P29274 whole entry): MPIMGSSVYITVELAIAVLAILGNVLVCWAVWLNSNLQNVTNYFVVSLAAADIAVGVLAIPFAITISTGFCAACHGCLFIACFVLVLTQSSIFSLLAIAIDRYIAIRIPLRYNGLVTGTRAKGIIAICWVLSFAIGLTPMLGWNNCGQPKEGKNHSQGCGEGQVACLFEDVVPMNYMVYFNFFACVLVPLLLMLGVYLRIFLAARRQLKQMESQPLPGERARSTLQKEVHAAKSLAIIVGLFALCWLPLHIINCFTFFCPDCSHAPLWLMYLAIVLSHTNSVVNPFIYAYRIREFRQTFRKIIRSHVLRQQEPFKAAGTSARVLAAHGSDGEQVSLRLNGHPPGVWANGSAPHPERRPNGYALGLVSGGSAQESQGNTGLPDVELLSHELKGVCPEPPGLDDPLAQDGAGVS
Assay: Binding affinities at hA2A receptors, displacement of [3H]-CGS 21680
Details: displacement of radioligand [3H]-CGS 21680, in vitro

Structure (SMILES) | pKi
CC(C)C[C@H](N)C(O)c1cc(C(F)(F)F)nc2c(C(F)(F)F)cccc12 (mixture of isomers) [Example 34, α-(-Amino-3-methylbutyl)-2,8-bis(trifluoromethyl)-4-quinolinemethanol] | 5.92
O[C@@H](c1cc(C(F)(F)F)nc2ccccc12)[C@H]1CCCCN1 (racemic) [Example 39, (11S*, 2′R*)-α-(2-Piperidinyl)-2-trifluoromethyl-4-quinolinemethanol (Racemic)] | 6.39
COc1cc([C@@H](O)[C@@H]2CCCCN2)c2cccc(C)c2n1 (racemic) [Example 48, (11R*, 2′S*)-2-Methoxy-8-methyl-α-(2-piperidinyl)-4-quinolinemethanol (Racemic)] | 5.96
CC(=O)N1CCCC[C@H]1[C@H](O)c1cc(C(F)(F)F)nc2c(C(F)(F)F)cccc12 [Example 5, (11R, 2′S)-α-(1-Acetyl-2-piperidinyl)-2,8-bis(trifluoromethyl)-4-quinolinemethanol] | 5.76
CN1CCCC[C@H]1[C@H](O)c1cc(C(F)(F)F)nc2c(C(F)(F)F)cccc12 [Example 7, (11R, 2′S)-α-(1-Methyl-2-piperidinyl)-2,8-bis(trifluoromethyl)-4-quinolinemethanol] | 7.35
CO[C@H](c1cc(C(F)(F)F)nc2c(C(F)(F)F)cccc12)[C@@H]1CCCCN1C [Example 8, (11R, 2′S)-4-(1-Methoxy-1-(1-methyl-2-piperidinyl)methyl)-2,8-bis(trifluoromethyl)quinoline] | 6.38
O[C@H](c1cc(C(F)(F)F)nc2c(C(F)(F)F)cccc12)[C@@H]1CCCCN1Cc1ccccc1 [Example 9, (11R, 2′S)-α-(1-Benzyl-2-piperidinyl)-2,8-bis(trifluoromethyl)-4-quinolinemethanol] | 6.74
FC(F)(F)c1cc([C@H]2OCN3CCCC[C@@H]23)c2cccc(C(F)(F)F)c2n1 [Example 11, (1R, 8aS)-1,5,6,7,8,8a-Hexahydro-1-(2,8-bis(trifluoromethyl)-4-quinolinyl)-3H-oxazolo[3,4-a]pyridine] | 7.20
FC(F)(F)c1cc([C@H]2OCN3CCCC[C@H]23)c2cccc(C(F)(F)F)c2n1 [Example 13, (1R, 8aR)-1,5,6,7,8,8a-Hexahydro-1-(2,8-bis(trifluoromethyl)-4-quinolinyl)-3H-oxazolo[3,4-a]pyridine] | 6.72
O=C1CO[C@H](c2cc(C(F)(F)F)nc3c(C(F)(F)F)cccc23)[C@@H]2CCCCN12 [Example 14, (1R, 9aS)-1,3,4,6,7,8,9,9a-Octahydro-1-(2,8-bis(trifluoromethyl)-4-quinolinyl)-pyrido[2,1-c][1,4]oxazine-4-one] | 5.75
FC(F)(F)c1cc([C@H]2OCCN3CCCC[C@@H]23)c2cccc(C(F)(F)F)c2n1 [Example 15, (1R, 9aS)-1,3,4,6,7,8,9,9a-Octahydrol-(2,8-bis(trifluoromethyl)-4-quinolinyl)-pyrido[2,1-c][1,4]oxazine] | 5.93
CNCC(O)c1cc(C(F)(F)F)nc2c(C(F)(F)F)cccc12 (stereo not drawn) [Example 22, α-Methylaminomethyl-2,8-bis(trifluoromethyl)-4-quinolinemethanol] | 5.82
OC(CNc1ccccc1)c1cc(C(F)(F)F)nc2c(C(F)(F)F)cccc12 (stereo not drawn) [Example 23, α-Phenylaminomethyl-2,8-bis(trifluoromethyl)-4-quinolinemethanol] | 5.56
OC(CNCc1ccccc1)c1cc(C(F)(F)F)nc2c(C(F)(F)F)cccc12 (stereo not drawn) [Example 24, α-Benzylaminomethyl-2,8-bis(trifluoromethyl)-4-quinolinemethanol] | 5.61
CC(C)CNCC(O)c1cc(C(F)(F)F)nc2c(C(F)(F)F)cccc12 (stereo not drawn) [Example 25, α-Isobutylaminomethyl-2,8-bis(trifluoromethyl)-4-quinolinemethanol] | 5.90
OC(CNC1CCC1)c1cc(C(F)(F)F)nc2c(C(F)(F)F)cccc12 (stereo not drawn) [Example 26, α-Cyclobutylaminomethyl-2,8-bis(trifluoromethyl)-4-quinolinemethanol] | 5.55
CO[C@H](c1cc(C(F)(F)F)nc2c(C(F)(F)F)cccc12)[C@@H]1CCCCN1 [Example 32, (1′R, 2S)-2-(α-Methoxy-2,8-bis(trifluoromethyl)-4-quinolinemethyl)piperidine Hydrochloride] | 6.65
O[C@H](c1cc(C(F)(F)F)nc2c(C(F)(F)F)cccc12)[C@@H]1CCCCN1CCc1ccccc1 [Example 38, (11S, 2′R)-α-(1-Phenethyl-2-piperidinyl)-2,8-bis(trifluoromethyl)-4-quinolinemethanol] | 6.04
CC[C@H](C)[C@H](N)[C@@H](O)c1cc(C(F)(F)F)nc2c(C(F)(F)F)cccc12 [Example 40, (11S, 1′S, 2′S)-α-(1-Amino-2-methyl-1-butyl)-2,8-bis(trifluoromethyl)-4-quinolinemethanol Hydrochloride] | 6.22
O[C@H](c1cc(C(F)(F)F)nc2c(C(F)(F)F)cccc12)[C@@H]1CCCN1 [Example 42, (11R, 2′S)-α-(2-pyrrolidinyl)-2,8-bis(trifuoromethyl)-4-quinolinemethanol Hydrochloride] | 6.34
CC(C)(C)OC(=O)N1CCC[C@H]1[C@H](O)c1cc(C(F)(F)F)nc2c(C(F)(F)F)cccc12 [Example 43, (11R, 2′S)-α-(1-tert-Butoxycarbonyl-2-pyrrolidinyl)-2,8-bis(trifluoromethyl)-4-quinolinemethanol] | 5.57
O[C@@H](c1cc(C(F)(F)F)nc2c(C(F)(F)F)cccc12)[C@@H]1CCCN1 [Example 45, (11S, 2′S)-α-(2-Pyrrolidinyl)-2,8-bis(trifluoromethyl)-4-quinolinemethanol Hydrochloride] | 5.69

System: Parkinsonian patients
Assay: not given
Details: 15 Parkinsonian patients, up to 12 weeks, 150 mg/day; cited from earlier work

Structure (SMILES) | mean objective disability scores
Cn1c(=O)c2[nH]cnc2n(C)c1=O [Theophylline, 1,3-dimethylxanthine] | significant improvements

Same assay, conditions: of 15 Parkinsonian patients, up to 12 weeks, 150 mg/day; cited from earlier work

Structure (SMILES) | patients reporting moderate or marked subjective improvement
Cn1c(=O)c2[nH]cnc2n(C)c1=O [Theophylline, 1,3-dimethylxanthine] | 11

Same assay, conditions: slow release oral preparation 150 mg/day, after one week; cited from earlier work

Structure (SMILES) | serum theophylline levels [mg/L]
Cn1c(=O)c2[nH]cnc2n(C)c1=O [Theophylline, 1,3-dimethylxanthine] | 4.44

System: not given
Assay: not given
Details: not given

Structure (SMILES) | melting point
COC(CNCc1ccccc1)c1cc(C(F)(F)F)nc2c(C(F)(F)F)cccc12 (stereo not drawn) (as salt: hydrochloride) [Example 30, N-Benzyl-β-methoxy-2,8-bis(trifuoromethyl)-4-quinolineethanamine Hydrochloride] | 232 to 233 °C
O[C@H](c1cc(C(F)(F)F)nc2c(C(F)(F)F)cccc12)[C@@H]1CCCN1 (as salt: hydrochloride) [Example 42, (11R, 2′S)-α-(2-pyrrolidinyl)-2,8-bis(trifuoromethyl)-4-quinolinemethanol Hydrochloride] | 230 °C (dec.)
O[C@@H](c1cc(C(F)(F)F)nc2c(C(F)(F)F)cccc12)[C@@H]1CCCN1 (as salt: hydrochloride) [Example 45, (11S, 2′S)-α-(2-Pyrrolidinyl)-2,8-bis(trifluoromethyl)-4-quinolinemethanol Hydrochloride] | 246 °C (dec.)
Cc1cccc2c([C@@H](O)[C@@H]3CCCCN3)cc(O)nc12 (relative stereo) | 225 °C (dec.)
Nc1cc([C@@H](O)[C@@H]2CCCCN2)c2ccccc2n1 (relative stereo) (as salt: salt) | 225 °C (dec.)
OC(CN1CCOCC1)c1cc(C(F)(F)F)nc2c(C(F)(F)F)cccc12 (stereo not drawn) [Example 18, α-Morpholinomethyl-2,8-bis(trifluoromethyl)-4-quinolinemethanol] | 129 to 130 °C
OC(CN1CCCCC1)c1cc(C(F)(F)F)nc2c(C(F)(F)F)cccc12 (stereo not drawn) [Example 20, α-Piperidinomethyl-2,8-bis(trifluoromethyl)-4-quinolinemethanol] | 129.5 °C
OC1(c2cc(C(F)(F)F)nc3c(C(F)(F)F)cccc23)CNC1 [Example 31, 3-(2,8-Bis(Trifluoromethyl)-4-quinolinyl)-3-azetidinol] | 201 °C (dec.)

System: haloperidol-induced deficits in locomotor activity in mice
Assay: Haloperidol-induced hypolocomotion model
Assay type: in vivo
Details: 10 mg/kg intraperitoneally, haloperidol 0.2 mg/kg
From the text: This approach is also considered a valid method for screening drugs with potential antiparkinsonian effects. Thus, the ability of novel adenosine antagonists to block haloperidol-induced deficits in locomotor activity in mice can be used to assess both in vivo and potential antiparkinsonian efficacy.
Female TO mice (25-30 g) obtained from TUCK, UK, are used for all experiments. Animals are housed in groups of 8 [cage size—40 (width)×40 (length)×20 (height)cm] under 12 hr light/dark cycle (lights on 08:00 hr), in a temperature (20±2° C.) and humidity (55±15%) controlled environment. Animals have free access to food and water, and are allowed at least 7 days to acclimatize after delivery before experimental use.
Liquid injectable haloperidol (1 ml Serenance ampoules from Baker Norton, Harlow, Essex, each containing haloperidol BP 5 mg, batch #P424) are diluted to a final concentration of 0.02 mg/ml using saline. Novel test compounds are typically prepared as aqueous suspensions in 8% Tween. All compounds are administered intraperitoneally in a volume of 10 ml/kg.
1.5 hours before testing, mice are administered 0.2 mg/kg haloperidol, a dose that reduces baseline locomotor activity by at least 50%. […] Horizontal locomotor activity is determined by placing the cages within a frame containing a 3×6 array of photocells linked to a computer, which tabulates beam breaks. […]

Structure (SMILES) | reversal of haloperidol-induced hypolocomotion
O[C@@H](c1cc(C(F)(F)F)nc2ccccc12)[C@H]1CCCCN1 (relative stereo) [Example 39, (11S*, 2′R*)-α-(2-Piperidinyl)-2-trifluoromethyl-4-quinolinemethanol (Racemic)] | significantly reversed
